{"source": "the supplement of paper PMC10307832", "test_in_all_cases": "relative viability (nuclei count vs DMSO), 5 days (fraction); higher = more cells survive", "key": {"[1]": {"compound": "COc1nc(N)nc2c1ncn2[C@@H]1O[C@H](CO)[C@@H](O)[C@@H]1O [Nelarabine] + CC(=O)Nc1cccc(-n2c(=O)n(C3CC3)c(=O)c3c(Nc4ccc(I)cc4F)n(C)c(=O)c(C)c32)c1 [Trametinib] (partner 0.02 µM)", "how_it_was_run": "(§1)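 Five library-drug doses in √10 steps were combined with a fixed anchor-drug dose, or a single drug was given alone, by pin tool to lung cancer cell lines in 1536-well plates the day after seeding. Nuclei were stained and counted after 5 days. Relative viability is the nuclei count in treated wells over that in vehicle wells, taken as the median of duplicate plates.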"}, "[2]": {"compound": "COc1nc(N)nc2c1ncn2[C@@H]1O[C@H](CO)[C@@H](O)[C@@H]1O [Nelarabine] + C[C@@H](Oc1cc(-c2cnn(C3CCNCC3)c2)cnc1N)c1c(Cl)ccc(F)c1Cl [Crizotinib] (partner 1 µM)", "how_it_was_run": "as §1"}, "[3]": {"compound": "C=CCn1c(=O)c2cnc(Nc3ccc(N4CCN(C)CC4)cc3)nc2n1-c1cccc(C(C)(C)O)n1 [Adavosertib] + CC1(C)CCC(c2ccc(Cl)cc2)=C(CN2CCN(c3ccc(C(=O)NS(=O)(=O)c4ccc(N[C@H](CCN5CCOCC5)CSc5ccccc5)c(S(=O)(=O)C(F)(F)F)c4)cc3)CC2)C1 [Navitoclax] (partner 0.5 µM)", "how_it_was_run": "as §1"}, "[4]": {"compound": "COc1nc(N)nc2c1ncn2[C@@H]1O[C@H](CO)[C@@H](O)[C@@H]1O [Nelarabine] + CC(C)C[C@H](NC(=O)[C@H](Cc1ccccc1)NC(=O)c1cnccn1)B(O)O [Bortezomib] (partner 0.002 µM)", "how_it_was_run": "as §1"}}}
{"cell line": "EMC-BAC-2", "values": [{"measurement": "relative viability", "setting": "[1]; first compound 0.01 µM", "result": 0.895}, {"measurement": "relative viability", "setting": "[1]; first compound 0.03162 µM", "result": 1.02}, {"measurement": "relative viability", "setting": "[1]; first compound 0.1 µM", "result": 0.819}, {"measurement": "relative viability", "setting": "[1]; first compound 0.3162 µM", "result": 0.821}, {"measurement": "relative viability", "setting": "[1]; first compound 1 µM", "result": 0.916}, {"measurement": "relative viability", "setting": "[2]; first compound 0.01 µM", "result": 0.734}, {"measurement": "relative viability", "setting": "[2]; first compound 0.03162 µM", "result": 0.624}, {"measurement": "relative viability", "setting": "[2]; first compound 0.1 µM", "result": 0.782}, {"measurement": "relative viability", "setting": "[2]; first compound 0.3162 µM", "result": 0.843}, {"measurement": "relative viability", "setting": "[2]; first compound 1 µM", "result": 0.683}, {"measurement": "relative viability", "setting": "[3]; first compound 0.01 µM", "result": 1.22}, {"measurement": "relative viability", "setting": "[3]; first compound 0.03162 µM", "result": 1.12}, {"measurement": "relative viability", "setting": "[3]; first compound 0.1 µM", "result": 1.2}, {"measurement": "relative viability", "setting": "[3]; first compound 0.3162 µM", "result": 1.19}, {"measurement": "relative viability", "setting": "[4]; first compound 0.01 µM", "result": 1.24}, {"measurement": "relative viability", "setting": "[4]; first compound 0.03162 µM", "result": 1.06}, {"measurement": "relative viability", "setting": "[4]; first compound 0.1 µM", "result": 1.05}, {"measurement": "relative viability", "setting": "[4]; first compound 0.3162 µM", "result": 1.15}, {"measurement": "relative viability", "setting": "[4]; first compound 1 µM", "result": 1.04}]}
